# The source made the active and inactive calls. No cut-off for these calls is given here.
# Experiments:
# Assay type in all cases: functional
# Staphylococcus aureus = assay: Antimicrobial activity against Staphylococcus aureus MTCC 3160 assessed as growth inhibition after 24 hr by broth microdilution method
# Enterobacter cloacae = assay: Antimicrobial activity against Enterobacter cloacae MTCC 509 assessed as growth inhibition after 24 hr by broth microdilution method
# Escherichia coli = assay: Antimicrobial activity against Escherichia coli MTCC 43 assessed as growth inhibition after 24 hr by broth microdilution method
# Micrococcus luteus = assay: Antimicrobial activity against Micrococcus luteus MTCC 2470 assessed as growth inhibition after 24 hr by broth microdilution method
# Burkholderia cepacia = assay: Antimicrobial activity against Burkholderia cepacia MTCC 438 assessed as growth inhibition after 24 hr by broth microdilution method
# Bacillus subtilis = assay: Antimicrobial activity against Bacillus subtilis MTCC 121 assessed as growth inhibition after 24 hr by broth microdilution method
# Klebsiella pneumoniae = assay: Antimicrobial activity against Klebsiella pneumoniae MTCC 109 assessed as growth inhibition after 24 hr by broth microdilution method
# Pseudomonas aeruginosa = assay: Antimicrobial activity against Pseudomonas aeruginosa MTCC 424 assessed as growth inhibition after 24 hr by broth microdilution method
# Trichophyton rubrum = assay: Antimicrobial activity against Trichophyton rubrum MTCC 296 assessed as growth inhibition after 5 days by broth microdilution method
# Aspergillus niger = assay: Antimicrobial activity against Aspergillus niger MTCC 404 assessed as growth inhibition after 5 days by broth microdilution method
# Aspergillus sydowii = assay: Antimicrobial activity against Aspergillus sydowii MTCC 4335 assessed as growth inhibition after 5 days by broth microdilution method
# Aspergillus parasiticus = assay: Antimicrobial activity against Aspergillus parasiticus MTCC 2797 assessed as growth inhibition after 5 days by broth microdilution method
# Candida albicans = assay: Antimicrobial activity against Candida albicans MTCC 3017 assessed as growth inhibition after 24 hr by broth microdilution method
# Pichia kudriavzevii = assay: Antimicrobial activity against Pichia kudriavzevii MTCC 231 assessed as growth inhibition after 24 hr by broth microdilution method
compound,measurement,setting,value
CC1(C)S[C@@H]2[C@H](NC(=O)[C@H](N)c3ccccc3)C(=O)N2[C@H]1C(=O)O [AMPICILLIN],MIC,"Staphylococcus aureus; MTCC 3160, 24 h",0.01 mM
same,MIC,"Enterobacter cloacae; MTCC 509, 24 h",5.7 mM
same,MIC,"Escherichia coli; MTCC 43, 24 h",0.08 mM
same,MIC,"Micrococcus luteus; MTCC 2470, 24 h",10 µM
same,MIC,"Burkholderia cepacia; MTCC 438, 24 h",5.7 mM
same,MIC,"Bacillus subtilis; MTCC 121, 24 h",0.01 mM
same,MIC,"Klebsiella pneumoniae; MTCC 109, 24 h",5.7 mM
same,MIC,"Pseudomonas aeruginosa; MTCC 424, 24 h",2800 µM
C/C=C/c1ccc2c(c1)OCO2 [ISOSAFROLE],MIC,Staphylococcus aureus,inactive
same,MIC,"Trichophyton rubrum; MTCC 296, 120 h",3080 µM
same,MIC,Enterobacter cloacae,inactive
same,MIC,Aspergillus niger,inactive
same,MIC,Aspergillus sydowii,inactive
same,MIC,Escherichia coli,inactive
same,MIC,Micrococcus luteus,inactive
same,MIC,Burkholderia cepacia,inactive
same,MIC,Aspergillus parasiticus,inactive
same,MIC,Candida albicans,inactive
same,MIC,Bacillus subtilis,inactive
same,MIC,Klebsiella pneumoniae,inactive
same,MIC,Pseudomonas aeruginosa,inactive
same,MIC,Pichia kudriavzevii,inactive
"COc1ccc(/C=C/C=O)cc1OC [3,4-DIMETHOXY CINNAMALDEHYDE]",MIC,"Staphylococcus aureus; MTCC 3160, 24 h",5.2 mM
same,MIC,"Trichophyton rubrum; MTCC 296, 120 h",2600 µM
same,MIC,"Enterobacter cloacae; MTCC 509, 24 h",10.4 mM
same,MIC,"Aspergillus niger; MTCC 404, 120 h",5.2 mM
same,MIC,"Aspergillus sydowii; MTCC 4335, 120 h",5.2 mM
same,MIC,"Escherichia coli; MTCC 43, 24 h",10.4 mM
same,MIC,"Micrococcus luteus; MTCC 2470, 24 h",2600 µM
same,MIC,"Burkholderia cepacia; MTCC 438, 24 h",5.2 mM
same,MIC,"Aspergillus parasiticus; MTCC 2797, 120 h",2600 µM
same,MIC,"Candida albicans; MTCC 3017, 24 h",2600 µM
same,MIC,"Bacillus subtilis; MTCC 121, 24 h",5.2 mM
same,MIC,"Klebsiella pneumoniae; MTCC 109, 24 h",10.4 mM
same,MIC,"Pseudomonas aeruginosa; MTCC 424, 24 h",2600 µM
same,MIC,"Pichia kudriavzevii; MTCC 231, 24 h",2600 µM
CN(C)c1ccc(/C=C/C=O)cc1,MIC,Staphylococcus aureus,inactive
same,MIC,Trichophyton rubrum,inactive
same,MIC,"Enterobacter cloacae; MTCC 509, 24 h",11.4 mM
same,MIC,Aspergillus niger,inactive
same,MIC,Aspergillus sydowii,inactive
same,MIC,Escherichia coli,inactive
same,MIC,"Micrococcus luteus; MTCC 2470, 24 h",11400 µM
same,MIC,Burkholderia cepacia,inactive
same,MIC,Aspergillus parasiticus,inactive
same,MIC,Candida albicans,inactive
same,MIC,Bacillus subtilis,inactive
same,MIC,Klebsiella pneumoniae,inactive
same,MIC,Pseudomonas aeruginosa,inactive
same,MIC,Pichia kudriavzevii,inactive
O=C/C=C/c1ccc2c(c1)OCO2,MIC,"Staphylococcus aureus; MTCC 3160, 24 h",2.84 mM
same,MIC,"Trichophyton rubrum; MTCC 296, 120 h",350 µM
same,MIC,"Enterobacter cloacae; MTCC 509, 24 h",1.42 mM
same,MIC,"Aspergillus niger; MTCC 404, 120 h",1.42 mM
same,MIC,"Aspergillus sydowii; MTCC 4335, 120 h",0.35 mM
same,MIC,"Escherichia coli; MTCC 43, 24 h",2.84 mM
same,MIC,"Micrococcus luteus; MTCC 2470, 24 h",2840 µM
same,MIC,"Burkholderia cepacia; MTCC 438, 24 h",0.71 mM
same,MIC,"Aspergillus parasiticus; MTCC 2797, 120 h",710 µM
same,MIC,"Candida albicans; MTCC 3017, 24 h",350 µM
same,MIC,"Bacillus subtilis; MTCC 121, 24 h",2.84 mM
same,MIC,"Klebsiella pneumoniae; MTCC 109, 24 h",1.42 mM
same,MIC,"Pseudomonas aeruginosa; MTCC 424, 24 h",350 µM
same,MIC,"Pichia kudriavzevii; MTCC 231, 24 h",350 µM
Cc1ccc(/C=C/C=O)c([N+](=O)[O-])c1,MIC,"Staphylococcus aureus; MTCC 3160, 24 h",10.5 mM
same,MIC,Trichophyton rubrum,inactive
same,MIC,"Enterobacter cloacae; MTCC 509, 24 h",10.5 mM
same,MIC,Aspergillus niger,inactive
same,MIC,Aspergillus sydowii,inactive
same,MIC,"Escherichia coli; MTCC 43, 24 h",2.61 mM
same,MIC,"Micrococcus luteus; MTCC 2470, 24 h",2610 µM
same,MIC,"Burkholderia cepacia; MTCC 438, 24 h",2.61 mM
same,MIC,Aspergillus parasiticus,inactive
same,MIC,Candida albicans,inactive
same,MIC,"Bacillus subtilis; MTCC 121, 24 h",2.61 mM
same,MIC,"Klebsiella pneumoniae; MTCC 109, 24 h",10.5 mM
same,MIC,"Pseudomonas aeruginosa; MTCC 424, 24 h",2610 µM
same,MIC,Pichia kudriavzevii,inactive
COc1ccc(/C=C/C=O)cc1 [PARA-METHOXY CINNAMALDEHYDE],MIC,"Staphylococcus aureus; MTCC 3160, 24 h",3.08 mM
same,MIC,"Trichophyton rubrum; MTCC 296, 120 h",770 µM
same,MIC,"Enterobacter cloacae; MTCC 509, 24 h",3.08 mM
same,MIC,"Aspergillus niger; MTCC 404, 120 h",3.08 mM
same,MIC,"Aspergillus sydowii; MTCC 4335, 120 h",3.08 mM
same,MIC,"Escherichia coli; MTCC 43, 24 h",3.08 mM
same,MIC,"Micrococcus luteus; MTCC 2470, 24 h",3080 µM
same,MIC,Burkholderia cepacia,inactive
same,MIC,"Aspergillus parasiticus; MTCC 2797, 120 h",3080 µM
same,MIC,"Candida albicans; MTCC 3017, 24 h",770 µM
same,MIC,"Bacillus subtilis; MTCC 121, 24 h",6.16 mM
same,MIC,"Klebsiella pneumoniae; MTCC 109, 24 h",3.08 mM
same,MIC,"Pseudomonas aeruginosa; MTCC 424, 24 h",770 µM
same,MIC,"Pichia kudriavzevii; MTCC 231, 24 h",770 µM
CCOc1ccc(/C=C/C=O)cc1OC,MIC,"Staphylococcus aureus; MTCC 3160, 24 h",2.42 mM
same,MIC,"Trichophyton rubrum; MTCC 296, 120 h",2420 µM
same,MIC,"Enterobacter cloacae; MTCC 509, 24 h",9.7 mM
same,MIC,"Aspergillus niger; MTCC 404, 120 h",4.85 mM
same,MIC,"Aspergillus sydowii; MTCC 4335, 120 h",4.85 mM
same,MIC,"Escherichia coli; MTCC 43, 24 h",9.7 mM
same,MIC,"Micrococcus luteus; MTCC 2470, 24 h",4850 µM
same,MIC,"Burkholderia cepacia; MTCC 438, 24 h",4.85 mM
same,MIC,"Aspergillus parasiticus; MTCC 2797, 120 h",2420 µM
same,MIC,"Candida albicans; MTCC 3017, 24 h",2420 µM
same,MIC,"Bacillus subtilis; MTCC 121, 24 h",4.85 mM
same,MIC,"Klebsiella pneumoniae; MTCC 109, 24 h",9.7 mM
same,MIC,"Pseudomonas aeruginosa; MTCC 424, 24 h",4850 µM
same,MIC,"Pichia kudriavzevii; MTCC 231, 24 h",4850 µM
OC/C=C/c1ccccc1 [CINNAMIC ALCOHOL],MIC,"Staphylococcus aureus; MTCC 3160, 24 h",14.9 mM
same,MIC,"Trichophyton rubrum; MTCC 296, 120 h",1860 µM
same,MIC,"Enterobacter cloacae; MTCC 509, 24 h",7.45 mM
same,MIC,"Aspergillus niger; MTCC 404, 120 h",3.72 mM
same,MIC,"Aspergillus sydowii; MTCC 4335, 120 h",3.72 mM
same,MIC,"Escherichia coli; MTCC 43, 24 h",7.45 mM
same,MIC,"Micrococcus luteus; MTCC 2470, 24 h",7450 µM
same,MIC,"Burkholderia cepacia; MTCC 438, 24 h",1.86 mM
same,MIC,"Aspergillus parasiticus; MTCC 2797, 120 h",3720 µM
same,MIC,"Candida albicans; MTCC 3017, 24 h",1860 µM
same,MIC,"Bacillus subtilis; MTCC 121, 24 h",7.45 mM
same,MIC,"Klebsiella pneumoniae; MTCC 109, 24 h",3.72 mM
same,MIC,"Pseudomonas aeruginosa; MTCC 424, 24 h",3720 µM
same,MIC,"Pichia kudriavzevii; MTCC 231, 24 h",3720 µM
CCOC(=O)/C=C/c1ccc2c(c1)OCO2,MIC,Staphylococcus aureus,inactive
same,MIC,Trichophyton rubrum,inactive
same,MIC,Enterobacter cloacae,inactive
same,MIC,"Aspergillus niger; MTCC 404, 120 h",0.56 mM
same,MIC,"Aspergillus sydowii; MTCC 4335, 120 h",0.14 mM
same,MIC,Escherichia coli,inactive
same,MIC,Micrococcus luteus,inactive
same,MIC,Burkholderia cepacia,inactive
same,MIC,"Aspergillus parasiticus; MTCC 2797, 120 h",140 µM
same,MIC,Candida albicans,inactive
same,MIC,Bacillus subtilis,inactive
same,MIC,Klebsiella pneumoniae,inactive
same,MIC,"Pseudomonas aeruginosa; MTCC 424, 24 h",560 µM
same,MIC,Pichia kudriavzevii,inactive
CCCCCCCCCCCCOC(=O)/C=C/c1ccccc1,MIC,Staphylococcus aureus,inactive
same,MIC,"Trichophyton rubrum; MTCC 296, 120 h",790 µM
same,MIC,Enterobacter cloacae,inactive
same,MIC,Aspergillus niger,inactive
same,MIC,Aspergillus sydowii,inactive
same,MIC,Escherichia coli,inactive
same,MIC,Micrococcus luteus,inactive
same,MIC,Burkholderia cepacia,inactive
same,MIC,Aspergillus parasiticus,inactive
same,MIC,"Candida albicans; MTCC 3017, 24 h",790 µM
same,MIC,Bacillus subtilis,inactive
same,MIC,"Klebsiella pneumoniae; MTCC 109, 24 h",3.16 mM
same,MIC,Pseudomonas aeruginosa,inactive
same,MIC,"Pichia kudriavzevii; MTCC 231, 24 h",390 µM

# Reference: ChEMBL document CHEMBL3046948, “Synthesis and SAR investigation of natural phenylpropene-derived methoxylated cinnamaldehydes and their novel Schiff bases as potent antimicrobial and antioxidant agents” (2013)
